# In patent publication US20210002623A1, “AMINOPEPTIDASE AND ITS USES” (Centre national de la recherche scientifique, priority 2017, published 2021):
# How the values were obtained:
# [1] = biological target: T1, MjTET (Methanocaldococcus jannaschii, UniProt Q57975); test: Effect of inhibitors on MjTET activity (Leu-pNA hydrolysis); assay type: biochemical; conditions: 5 mM Leu-pNA, 0.1 mM CoCl2, pH 8.5, 85° C., 5 min
# T1 construct: made in house; host or cells: Escherichia coli ArcticExpress (DE3)-RIL
# T1 sequence (Q57975 1-350): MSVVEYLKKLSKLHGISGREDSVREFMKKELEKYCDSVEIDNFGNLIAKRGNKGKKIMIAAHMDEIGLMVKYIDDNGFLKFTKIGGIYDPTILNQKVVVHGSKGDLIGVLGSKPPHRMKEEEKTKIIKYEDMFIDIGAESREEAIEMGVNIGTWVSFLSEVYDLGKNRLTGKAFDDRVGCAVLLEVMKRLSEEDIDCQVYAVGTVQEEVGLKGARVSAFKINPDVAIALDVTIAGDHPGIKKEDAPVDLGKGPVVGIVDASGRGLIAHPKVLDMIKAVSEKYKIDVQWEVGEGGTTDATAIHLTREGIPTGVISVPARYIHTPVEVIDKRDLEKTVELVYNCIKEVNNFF
# Procedure: The inhibitory effect of EDTA, Amastatine and Bestatine was tested on the MjTET enzymatic activity. 4 μg/mL of MjTET were incubated with each inhibitor separately in the presence of 5 mM Leu-pNA, 50 mM CHES, 150 mM KCl, 0.1 mM CoCl2, pH 8.5 at 85° C. for 5 min. Three replicates (with inhibitor) and two controls (without inhibitor) were assayed for each experimental point.
# [2] = biological target: T1, MjTET; test: Effect of metal cations on MjTET activity; assay type: biochemical; conditions: 5 mM Leu-pNA, pH 8.5, 75° C., 5 min
# Procedure: The metal cations XCl2 were incubated at 0.1 mM concentration with 4 μg/mL of MjTET and 5 mM of Leu-pNA in 50 mM CHES, 150 mM KCl, pH 8.5 for 5 min at 75° C. To assess the effect of metal cations on MjTET activity, the enzymatic reaction was followed as described before.
structure (smiles),measurement,setting,value
O=C(O)CN(CCN(CC(=O)O)CC(=O)O)CC(=O)O [EDTA],inhibition of MjTET enzymatic activity,[1]; 5 mM EDTA,completely inhibited
[Cl-].[Cl-].[Zn+2] [ZnCl2],effect on MjTET LAP activity,[2]; 0.1 mM ZnCl2,significant inhibition
CC(C)C[C@@H](N)[C@H](O)C(=O)N[C@H](C(=O)N[C@H](C(=O)N[C@@H](CC(=O)O)C(=O)O)C(C)C)C(C)C [amastatine],inhibition of MjTET LAP activity,[1]; 0.2 mM amastatine,completely inhibited
CC(C)C[C@H](NC(=O)[C@@H](O)[C@H](N)Cc1ccccc1)C(=O)O [bestatine],inhibition of MjTET LAP activity,[1]; 1 mM bestatine,completely inhibited
[Cl-].[Cl-].[Co+2] [cobalt ions],effect on MjTET LAP activity,[2]; 0.1 mM metal cation,increase of LAP activity
